Measured values published in paper PMC12186255, “Discovery and Characterization of Small Molecule Inhibitors Targeting Exonuclease 1 for Homologous Recombination-Deficient Cancer Therapy” (ACS Chemical Biology, 2025).

Experiments:
FEN1 = target: T1, FEN1 (Homo sapiens, UniProt P39748); experiment: Analogous FRET-based counter screen with purified FEN1; type: biochemical; details: FRET-based assay, maximum inhibitor concentration 100 μM
T1 construct: made in house
Procedure: Data were normalized by subtracting the relative fluorescence unit (RFU) of the blank sample from that of each EXO1-containing reaction. The relative activity of individual compounds was subsequently calculated by setting the corrected RFU of EXO1 with DMSO as 100% and comparing the corrected RFU for each condition to the DMSO value. Each assay was performed by sequentially adding experimental compounds, the EXO1 enzyme, and the DNA substrate to minimize starting differences. […] Following IC50 screening, an analogous FRET-based assay was performed using purified FEN1 to assess the EXO1 specificity of each compound.
For subsequent hit confirmation, 84 compounds from the primary screen were picked from our internal stock and subjected to a dose-dependent response assay starting at 100 μM with 3-fold serial dilution. To analyze the data from the dose-dependent response assay, IC50 values for each hit were calculated through nonlinear regression analysis using GraphPad Prism 10 (GraphPad Software, Inc.). […] Subsequently, a counter screen was performed to eliminate potential false-positive hits. To accomplish this, we established an analogous FRET assay using the purified FEN1 enzyme in place of EXO1.

ACHN = experiment: Cell line drug profiling, CellTiter Glo; type: cell-based; details: Homo sapiens, Kidney, 72 h
Procedure: (§1) We tested the cytotoxicity of representative compounds from the seven EXO1i scaffolds against a subset of the NCI-60 cell line panel along with three additional pancreatic cell lines (FG, AsPC1, and CaPan2). In general, cells were seeded in 384-well tissue culture-treated plates overnight and treated with various concentrations of each hit compound (a serial 3-fold dilution from 50 μM for all tested hits). Each concentration was performed in duplicate. Cell viability was then measured by CellTiter Glo (Promega) after 72 h of treatment.

AsPC1 = experiment: Cell line drug profiling, CellTiter Glo; type: cell-based; details: Homo sapiens; AsPC1, Pancreatic, 72 h
Procedure: as §1

BT549 = experiment: Cell line drug profiling, CellTiter Glo; type: cell-based; details: Homo sapiens, BT-549; BT549, Breast, 72 h
Procedure: as §1

CCRF-CEM = experiment: Cell line drug profiling, CellTiter Glo; type: cell-based; details: Homo sapiens, Leukemia, 72 h
Procedure: as §1

CaPan2 = experiment: Cell line drug profiling, CellTiter Glo; type: cell-based; details: Homo sapiens, Capan-2; CaPan2, Pancreatic, 72 h
Procedure: as §1

DU145 (B3) = experiment: Cell line drug profiling, CellTiter Glo; type: cell-based; details: Homo sapiens, DU-145, Prostate, 72 h
Procedure: as §1

DU145 = experiment: Cell line drug profiling, CellTiter Glo; type: cell-based; details: Homo sapiens, DU-145; DU145, Prostate, 72 h
Procedure: as §1

FG = experiment: Cell line drug profiling, CellTiter Glo; type: cell-based; details: Homo sapiens, Pancreatic, 72 h
Procedure: as §1

H23 = experiment: Cell line drug profiling, CellTiter Glo; type: cell-based; details: Homo sapiens, NCI-H23; H23, Lung, 72 h
Procedure: as §1

HL-60(TB) = experiment: Cell line drug profiling, CellTiter Glo; type: cell-based; details: Homo sapiens, Leukemia, 72 h
Procedure: as §1

HS 578T = experiment: Cell line drug profiling, CellTiter Glo; type: cell-based; details: Homo sapiens, Breast, 72 h
Procedure: as §1

IGR-OV1 = experiment: Cell line drug profiling, CellTiter Glo; type: cell-based; details: Homo sapiens, IGROV-1; IGR-OV1, Ovarian, 72 h
Procedure: as §1

MCF7 (B3) = experiment: Cell line drug profiling, CellTiter Glo; type: cell-based; details: Homo sapiens, Breast, 72 h
Procedure: as §1

MCF7 = experiment: Cell line drug profiling, CellTiter Glo; type: cell-based; details: Homo sapiens; MCF7, Breast, 72 h
Procedure: as §1

MDA-MB-231 = experiment: Cell line drug profiling, CellTiter Glo; type: cell-based; details: Homo sapiens; MDA-MB-231, Breast, 72 h
Procedure: as §1

NCI/ADR-RES = experiment: Cell line drug profiling, CellTiter Glo; type: cell-based; details: Homo sapiens, Ovarian, 72 h
Procedure: as §1

OVCAR-3 = experiment: Cell line drug profiling, CellTiter Glo; type: cell-based; details: Homo sapiens; OVCAR-3, Ovarian, 72 h
Procedure: as §1

OVCAR-4 = experiment: Cell line drug profiling, CellTiter Glo; type: cell-based; details: Homo sapiens; OVCAR-4, Ovarian, 72 h
Procedure: as §1

OVCAR-5 = experiment: Cell line drug profiling, CellTiter Glo; type: cell-based; details: Homo sapiens; OVCAR-5, Ovarian, 72 h
Procedure: as §1

OVCAR-8 = experiment: Cell line drug profiling, CellTiter Glo; type: cell-based; details: Homo sapiens; OVCAR-8, Ovarian, 72 h
Procedure: as §1

PC3 = experiment: Cell line drug profiling, CellTiter Glo; type: cell-based; details: Homo sapiens, PC-3; PC3, Prostate, 72 h
Procedure: as §1

SF-268 = experiment: Cell line drug profiling, CellTiter Glo; type: cell-based; details: Homo sapiens; SF-268, Central Nervous System, 72 h
Procedure: as §1

SK-MEL-28 = experiment: Cell line drug profiling, CellTiter Glo; type: cell-based; details: Homo sapiens; SK-MEL-28, Melanoma, 72 h
Procedure: as §1

SKOV-3 = experiment: Cell line drug profiling, CellTiter Glo; type: cell-based; details: Homo sapiens, SK-OV-3; SKOV-3, Ovarian, 72 h
Procedure: as §1

SNB-19 = experiment: Cell line drug profiling, CellTiter Glo; type: cell-based; details: Homo sapiens; SNB-19, Central Nervous System, 72 h
Procedure: as §1

T-47D = experiment: Cell line drug profiling, CellTiter Glo; type: cell-based; details: Homo sapiens, T47D, Breast, 72 h
Procedure: as §1

U251 = experiment: Cell line drug profiling, CellTiter Glo; type: cell-based; details: Homo sapiens, U-251; U251, Central Nervous System, 72 h
Procedure: as §1

UACC-257 = experiment: Cell line drug profiling, CellTiter Glo; type: cell-based; details: Homo sapiens; UACC-257, Melanoma, 72 h
Procedure: as §1

UO-31 = experiment: Cell line drug profiling, CellTiter Glo; type: cell-based; details: Homo sapiens; UO-31, Kidney, 72 h
Procedure: as §1

MDA-MB-468 = experiment: Cell line drug profiling, CellTiter Glo; type: cell-based, human
Procedure: as §1

SF-295 = experiment: Cell line drug profiling, CellTiter Glo; type: cell-based, human
Procedure: as §1

MDA-MB-231 cells = experiment: Gel-based phospho-RPA end resection assay; type: cell-based, human; details: inhibitor overnight then 2 μM CPT 2 h, C5 10 μM
Procedure: The levels of RPA32 and phosphorylated RPA32 (S33) were analyzed by Western blotting using antibodies against RPA32 and phosphorylated RPA32 (S33). The total level of tubulin was used as a control. (b) Ratio of P-RPA:RPA levels calculated from panel a. […] U2OS cells carrying a GFP reporter for HR were infected with adenovirus expressing the I-SceI restriction enzyme. […] U2OS cells carrying a GFP reporter for HR were infected with adenovirus expressing the I-SceI restriction enzyme. […] For panels c and d, after 48 h, the cells were harvested, and the GFP-positive cells were analyzed by flow cytometry. Values are the mean ± S.D. of three independent experiments.
The treated cells were then lysed in the SDS-PAGE sample buffer, and the lysate was separated by SDS-PAGE prior to immobilization on a nitrocellulose membrane and Western blotting. Antibodies against unphosphorylated RPA, S33-P-RPA2, and tubulin were subsequently assayed according to the manufacturer’s recommendations. The ratio of P-RPA/RPA levels were quantified via ImageJ.

EXO1 [1] = target: T2, EXO1 (Homo sapiens, UniProt Q9UQ84); experiment: FRET-based EXO1 exonuclease activity assay, dose-response; type: biochemical; details: nick substrate, 30 min, 37 °C
T2 construct: made in house
T2 sequence (Q9UQ84 1-846): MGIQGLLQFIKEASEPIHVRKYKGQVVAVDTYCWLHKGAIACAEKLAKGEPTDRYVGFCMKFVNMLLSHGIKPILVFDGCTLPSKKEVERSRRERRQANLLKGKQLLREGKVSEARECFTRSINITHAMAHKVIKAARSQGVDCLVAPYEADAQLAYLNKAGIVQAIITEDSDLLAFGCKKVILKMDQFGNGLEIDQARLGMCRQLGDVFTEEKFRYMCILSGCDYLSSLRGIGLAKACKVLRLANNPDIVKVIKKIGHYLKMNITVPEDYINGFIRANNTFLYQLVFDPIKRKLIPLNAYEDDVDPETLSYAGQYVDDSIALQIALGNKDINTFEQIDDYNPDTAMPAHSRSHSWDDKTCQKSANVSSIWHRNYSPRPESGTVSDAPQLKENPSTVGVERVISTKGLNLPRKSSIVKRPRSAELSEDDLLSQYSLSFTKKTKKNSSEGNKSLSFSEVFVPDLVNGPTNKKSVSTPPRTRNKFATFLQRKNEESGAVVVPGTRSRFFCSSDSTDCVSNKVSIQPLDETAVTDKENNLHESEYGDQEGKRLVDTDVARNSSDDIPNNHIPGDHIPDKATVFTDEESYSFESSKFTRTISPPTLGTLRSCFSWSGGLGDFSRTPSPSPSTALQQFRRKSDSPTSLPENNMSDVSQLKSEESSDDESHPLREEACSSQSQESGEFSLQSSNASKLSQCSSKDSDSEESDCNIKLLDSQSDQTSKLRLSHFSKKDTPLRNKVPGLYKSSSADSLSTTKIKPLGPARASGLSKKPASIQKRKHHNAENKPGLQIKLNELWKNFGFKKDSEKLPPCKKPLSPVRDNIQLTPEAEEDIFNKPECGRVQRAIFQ
From the text: We developed a cell-free in vitro assay to detect EXO1 exonuclease activity based on FRET quenching. […] A ZEN quencher and IowaBlackFQ quencher were attached to the downstream oligo internally and at the 3' end, respectively, to suppress FAM signal. Two quenchers were used to provide better quenching effects than did a single quencher, as recommended by the manufacturer (IDT). The sequence of the nick substrate was as follows: up-primer: [NT]; template: [NT]; and probe: […] . When EXO1 cleaved the nick substrate, the FAM-labeled nucleotide was untethered from the substrate and yielded a bright green fluorescence. […] Fluorescent signals were measured after a 30 min incubation. […] Data were normalized by subtracting the relative fluorescence unit (RFU) of the blank sample from that of each EXO1-containing reaction. The relative activity of individual compounds was subsequently calculated by setting the corrected RFU of EXO1 with DMSO as 100% and comparing the corrected RFU for each condition to the DMSO value. Each assay was performed by sequentially adding experimental compounds, the EXO1 enzyme, and the DNA substrate to minimize starting differences.

EXO1 [2] = target: T2, EXO1; experiment: Thermal shift assay; type: binding; details: maximum shift in Tm of EXO1 vs DMSO, increasing inhibitor concentrations
Procedure: To assess for changes in the thermal stability of EXO1 protein in response to treatment with candidate small molecule inhibitors or DMSO (vehicle control), the thermal shift assay (Applied Biosystems Protein Thermal Shift Dye Kit, Cat. #4461146) was utilized. The protein melt reaction mix consisted of freshly prepared 10× thermal shift dye, purified EXO1 enzyme (1 μg/uL), thermal shift buffer, DMSO or inhibitors, and sterilized Milli-Q water. A drug-free supermix was premade and dispensed in 96-well PCR plates followed by the addition of DMSO or inhibitors with increasing concentration. The reaction plate was heated from 10 to 98 °C at a rate of 0.5° per 10 s cycle, and the fluorescence intensity of individual wells was measured at 490/530 nm using a BioRad CFX96 Touch Real-Time PCR System. The fluorescence measurements of three technical replicates per treatment condition were then averaged to calculate melting temperature shift (ΔT m) as a readout for compound binding affinity.

T1 sequence (P39748 whole entry): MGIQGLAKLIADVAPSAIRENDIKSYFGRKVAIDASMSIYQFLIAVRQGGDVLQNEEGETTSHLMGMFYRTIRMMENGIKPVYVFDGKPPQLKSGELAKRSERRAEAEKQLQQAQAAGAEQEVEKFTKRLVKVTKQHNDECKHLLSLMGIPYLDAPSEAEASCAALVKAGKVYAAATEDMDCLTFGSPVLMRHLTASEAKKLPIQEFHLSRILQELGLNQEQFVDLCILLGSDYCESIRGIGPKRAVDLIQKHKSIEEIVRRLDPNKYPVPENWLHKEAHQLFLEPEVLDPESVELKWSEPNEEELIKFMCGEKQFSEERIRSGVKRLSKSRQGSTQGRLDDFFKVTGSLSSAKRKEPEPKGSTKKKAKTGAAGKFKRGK

O=S(=O)(Nc1nc2n(n1)C(c1ccccc1)C=C(c1ccc(Cl)cc1)N2)c1ccc(Cl)cc1 (stereo not shown) [D413]
IC50 (FEN1): > 100 µM

O=C(Nc1ccc(N2CCC(Cc3ccccc3)CC2)cc1C(=O)O)c1ccccc1Cl [F685]
IC50 (FEN1): > 100 µM | IC50 (ACHN): 19.9 µM | IC50 (AsPC1): 43.3 µM | IC50 (BT549): 17.9 µM | IC50 (CCRF-CEM): 14.8 µM | IC50 (CaPan2): 44.7 µM | IC50 (DU145 (B3)): 14.1 µM | IC50 (DU145): 12.6 µM | IC50 (FG): > 50 µM | IC50 (H23): 23.5 µM | IC50 (HL-60(TB)): 17.5 µM | IC50 (HS 578T): 22.9 µM | IC50 (IGR-OV1): 18.1 µM | IC50 (MCF7 (B3)): 37.3 µM | IC50 (MCF7): 43.5 µM | IC50 (MDA-MB-231): 31.6 µM | IC50 (NCI/ADR-RES): 17.7 µM | IC50 (OVCAR-3): 5.73 µM | IC50 (OVCAR-4): 21.4 µM | IC50 (OVCAR-5): 19.4 µM | IC50 (OVCAR-8): 18.8 µM | IC50 (PC3): 19.7 µM | IC50 (SF-268): 49.3 µM | IC50 (SK-MEL-28): 47.1 µM | IC50 (SKOV-3): 24.4 µM | IC50 (SNB-19): 16.6 µM | IC50 (T-47D): 16.9 µM | IC50 (U251): 14.2 µM | IC50 (UACC-257): 21.5 µM | IC50 (UO-31): 8.27 µM | IC50 (MDA-MB-468; Homo sapiens, MDA-MB-468, 72 h): 46.4 µM | IC50 (SF-295; Homo sapiens, SF-295, 72 h): 28.2 µM

O=C(O)c1c[nH]c2c([N+](=O)[O-])cccc2c1=O [C5, reference compound]
CPT-induced P-RPA levels (DNA end resection) (MDA-MB-231 cells): significant reduction

Cc1c(Cl)cccc1NCc1cc(=O)n2nc(-c3ccc(C(C)(C)C)cc3)nc2[nH]1 [D351]
IC50 (EXO1 [1]): 8 µM | IC50 (FEN1): > 100 µM

O=S(=O)(Nc1nc2n(n1)C(c1ccc(F)cc1)C=C(c1ccccc1)N2)c1ccc(Cl)cc1 (stereo not shown) [D413-0213]
IC50 (MDA-MB-468; MDA-MB-468, Breast, 72 h): 20 µM | IC50 (SF-295; SF-295, Central Nervous System, 72 h): 40 µM

Cc1ccccc1C(=O)Nc1ccc(N2CCN(c3ccccc3Cl)CC2)c(C(=O)O)c1 [G889]
IC50 (FEN1): > 100 µM | ΔT m (EXO1 [2]): ~1 °C
